How the values were obtained:
[1] = tested on: brains of STZ-treated-animals; experiment: Gene expression in brain in acute STZ model of AD; type: in vivo, mice; conditions: 25 mg/kg orally daily until Day 4
Description: (§1) To induce symptoms of AD, STZ (3 mg/kg, Sigma) was administered via intracerebral injection ([…] et al, Int J Neurosci, PMID 24494726, 2014). This is a well-established model of the sporadic form of AD. Briefly, animals were anesthetized and STZ solution in 5 μl artificial cerebrospinal fluid (Harvard Apparatus) was injected through the skull with a 50 μl syringe. Control animals received a similar volume of artificial cerebrospinal fluid without STZ. The injections were performed twice, on Day 1 and Day 3. […] Treatment with ZLN005 was continued on a daily schedule until Day 4.

[2] = tested on: Ppargc1a pathway in the brain
Description: (§2) To induce symptoms of PD, MPTP (20 mg/kg) was administered intraperitoneally in sterile PBS 4 times at 2-hour intervals on day 1. […] Log-rank test was used for statistical analysis.
(§3) Ppargc1a, an inducer of mitochondrial biogenesis, is widely expressed in cells throughout the body.
For gene expression studies, animals were sacrificed on Day 4, 24 hours after the 3rd oral dosage of ZLN005, and PBS-perfused brain tissues were processed for RNA isolation, cDNA synthesis, and real-time quantitative PCR (Invitrogen). […] Unpaired t-tests were used for statistical analyses.

MPTP-treated animals = experiment: Nest-building test in MPTP model of PD; type: in vivo, mice; conditions: one dose 25 mg/kg
Description: Impaired nest-building skill has been widely used as one of the most reliable indication of motor dysfunction in the MPTP model of […] et al, Behav Brain Res, 125:109-25, 2001). In this test, animals are given cotton pads to be used as nestling, and are tested for their abilities to tear off the cotton pads into small pieces to build a nest; these abilities require fine motor coordination. Animals with microglia-specific deletion of Ppargc1a and controls were generated as described in Example 1. […] Control animals received a similar volume of PBS. Immediately after the last dosage of MPTP, each animal was put in one cage and given two cotton pads to be used in nestling; the appearance of the cotton pads was evaluated 16 hours later. The results are shown in FIG. 7 as weights of shredded nestlets (n=9-10 animals per treatment group). […] MPTP-ZLN animals generated more cotton-debris in comparison to the MPTP-Ctrl group. […] Unpaired t-tests were used for statistical analyses.

Ppargc1a = tested on: Ppargc1a
Description: as §2, §3
For protein expression studies, animals were sacrificed on Day 4, 24 hours after the 3rd oral dosage of ZLN005 and PBS-perfused brain tissues were digested with Collagenase IV, processed for microglia isolation by flow cytometry (Ginhoux et al Science, 330:841-5, 2010), and immunoblot analysis of Ppargc1a expression.

[3] = tested on: brain perivascular macrophages; experiment: 2-NBDG glucose uptake in brain perivascular macrophages of ALS transgenic animals; type: in vivo, mice; conditions: 25 mg/kg orally 3 times a week for 8 weeks, 13 weeks of age
Description: ALS transgenic animals were orally treated 3 times a week for 8 weeks with 0.5% methylcellulose or ZLN005 (Sigma) at 25 mg/kg in 0.5% methylcellulose, starting at 5 weeks of age. For measuring brain perivascular macrophages, ALS-Ctrl (n=8), ALS-ZLN (n=8), and WT animal (n=12) were sacrificed at 13 weeks of age. PBS-perfused brain tissues of sacrificed animals were digested with Collagenase IV and processed for flow cytometry. Brain perivascular macrophages were stained with 2-NBDG, the fluorescent glucose analog, to measure glucose uptake for flow cytometric acquisition (LSRII, BD) and analysis (FlowJo). The results are summarized in FIG. 20; Y-axis represents % of brain perivascular macrophages that have taken up the glucose analog, 2-NBDG. […] ANOVA was used for statistical analysis.

[4] = tested on: CD45hi CD11b+F4/80+brain perivascular macrophages; experiment: Frequency of brain perivascular macrophages in ALS transgenic animals; type: in vivo, mice; conditions: 25 mg/kg orally 3 times a week for 8 weeks, 13 weeks of age
Description: ALS transgenic animals were orally treated 3 times a week for 8 weeks with 0.5% methylcellulose or ZLN005 (Sigma) at 25 mg/kg in 0.5% methylcellulose, starting at 5 weeks of age. For measuring the frequency of CD45hi CD11b+F4/80+brain perivascular macrophages, ALS-Ctrl (n=13), ALS-ZLN (n=17), and WT animals (n=17) were sacrificed at 13 weeks of age. PBS-perfused brain tissues of sacrificed animals were digested with Collagenase IV and processed for flow cytometry. The results are summarized in FIG. 19; Y-axis represents % of brain perivascular macrophages among total brain immune cells in the brain. […] ANOVA was used for statistical analysis.

microglia = experiment: Microglia flow cytometry in acute STZ model of AD (TNF-α, ThioltrackerViolet, MitotrackerRed); type: in vivo, mice
Description: as §1, with “7. […] Microglia were phenotyped with antibodies directed against mouse TNF-α (Biolegend) and metabolic dyes […], and MitotrackerRed (Invitrogen) for flow cytometric acquisition (LSRII, BD) and analysis (FlowJo). […] ANOVA was used for statistical analyses.” for “4.”

ALS transgenic mice = experiment: Wheel-running test in ALS transgenic animals; type: in vivo; conditions: 25 mg/kg orally 3 times a week for 4 weeks from 9 weeks of age
Description: ALS transgenic mice were orally treated 3 times a week for 4 weeks with 0.5% methylcellulose or ZLN005 (Sigma) at 25 mg/kg in 0.5% methylcellulose, starting at 9 weeks of age. A wheel-running test was performed similarly to that described in Example 8. The animals started training at 13 weeks of age for 1.5 weeks of training on a treadmill at a constant speed of 10 rpm and then for 1.5 weeks of training at an accelerating speed from 5-15 rpm. After the training period at 14.5 and 16 weeks of age, animals were tested for motor performance at a constant speed and at an accelerating speed, respectively. […] Unpaired t-tests were used for statistical analyses.

[5] = STZ-treated animals, 25 mg/kg orally daily until Day 7

For `CC(C)(C)c1ccc(-c2nc3ccccc3[nH]2)cc1` [ZLN005, 2-(4-tert-butylphenyl)-1H-benzimidazole], the “expression of genes involved in Ppargc1a signaling and antioxidant defense (Tfam, Cytc) in the brain” value [1] was “increased expression”, the “expression of genes involved in β-amyloid generation (App and Psen1) in the brain” value [1] was “decreased the expression” and the “expression of genes involved in Ppargc1a signaling (Pgc1a), mitochondrial genes (Tfam, Nrf2, Ucp3) and anti-oxidative stress genes (Ant, Sod1, Sod2) in the brain” value ([2]; MPTP-treated animals, 25 mg/kg orally once a day for 3 days, Day 4) was “increases expression of genes”. The “upregulation of tyrosine hydroxylase (Th)” value ([2]; brain of MPTP-treated animals, 25 mg/kg orally once a day for 3 days, Day 4) was 15%, the blood-brain barrier penetration ([2]; mouse, in vivo, po, 25 mg/kg) was “penetrated the blood-brain barrier” and the “nest-building, weights of shredded nestlets (fine motor skills)” value (MPTP-treated animals; MPTP-treated Cre animals) was “present only in FF animals but not in Cre animals”. For the same compound, the “nest-building, weights of shredded nestlets (fine motor skills)” value (MPTP-treated animals; MPTP-treated FF animals, evaluated 16 hours later, vs MPTP-Ctrl) was “marked improvement in their fine motor skills”, the “Ppargc1a protein expression in microglia” value (Ppargc1a; MPTP-treated animals, 25 mg/kg orally, 3 doses, Day 4) was “enhanced Ppargc1a protein expression in microglia” and the blood-brain barrier penetration (Ppargc1a; mouse, in vivo, po, 25 mg/kg) was “penetrated the blood-brain barrier”. The “glucose uptake (2-NBDG) in brain perivascular macrophages” value [3] was “decreased”, the “percentage of brain perivascular macrophages among total brain immune cells” value [4] was “decreased” and the “TNF-α production in microglia” value (microglia; [5]) was “suppressed TNF-α production”. The “mitochondrial potential in microglia (MitotrackerRed)” value (microglia; [5]) was “enhanced”, the “production of glutathione in microglia (ThioltrackerViolet)” value (microglia; [5]) was “enhanced” and the glycolysis in microglia (microglia; microglia isolated from STZ-treated animals) was “enhanced glycolysis”. For the same compound, the latency to fall (ALS transgenic mice; accelerating speed 5-15 rpm, 16 weeks of age) was 243.7 s and the latency to fall (ALS transgenic mice; constant speed 10 rpm, 14.5 weeks of age) was 296.3 s.
